In PubChem BioAssay AID330 (DTP/NCI, 2004):
Values joined by “and” are separate entries in the source; they are usually repeats but may differ in a detail not shown here. Identical values can stand only once. Toxic doses and inconclusive results are not listed.

Tested on: P388 leukemia ip, CD2F1 mice, survival T/C
Assay: NCI In Vivo Anticancer Drug Screen. Data for tumor model P388 Leukemia (intraperitoneal) in CD2F1 (CDF1) mice
Settings: endpoint: median survival time, higher = longer survival
How it was run: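 Mice carrying the transplanted tumor received test compound or vehicle. Survival was recorded in each group, and the value is the treated-group measurement divided by that of the vehicle-treated control group.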

[1] = dose: 6.25 mg/kg/injection, schedule: Q01DX009 (ip), vehicle: saline
[2] = dose: 12.5 mg/kg/injection, schedule: Q01DX009 (ip), vehicle: saline
[3] = dose: 25.0 mg/kg/injection, schedule: Q01DX009 (ip), vehicle: saline
[4] = dose: 60.0 mg/kg/injection, schedule: Q01DX005 (ip), vehicle: saline with Tween-80
[5] = dose: 120.0 mg/kg/injection, schedule: Q01DX005 (ip), vehicle: saline with Tween-80
[6] = dose: 240.0 mg/kg/injection, schedule: Q01DX005 (ip), vehicle: saline with Tween-80
[7] = dose: 6.25 mg/kg/injection, schedule: Q01DX009 (ip), vehicle: saline with Tween-80
[8] = dose: 12.5 mg/kg/injection, schedule: Q01DX009 (ip), vehicle: saline with Tween-80
[9] = dose: 25.0 mg/kg/injection, schedule: Q01DX009 (ip), vehicle: saline with Tween-80
[10] = dose: 50.0 mg/kg/injection, schedule: Q01DX009 (ip), vehicle: saline with Tween-80
[11] = dose: 50.0 mg/kg/injection, schedule: Q01DX009 (ip), vehicle: saline
[12] = dose: 100.0 mg/kg/injection, schedule: Q01DX009 (ip), vehicle: saline
[13] = dose: 50.0 mg/kg/injection, schedule: Q01DX005 (ip), vehicle: saline with Tween-80
[14] = dose: 100.0 mg/kg/injection, schedule: Q01DX005 (ip), vehicle: saline with Tween-80
[15] = dose: 200.0 mg/kg/injection, schedule: Q01DX005 (ip), vehicle: saline with Tween-80
[16] = dose: 50.0 mg/kg/injection, schedule: Q01DX005 (ip), vehicle: Klucel (hydroxypropylcellulose) (HPC)
[17] = dose: 100.0 mg/kg/injection, schedule: Q01DX005 (ip), vehicle: Klucel (hydroxypropylcellulose) (HPC)
[18] = dose: 200.0 mg/kg/injection, schedule: Q01DX005 (ip), vehicle: Klucel (hydroxypropylcellulose) (HPC)
[19] = dose: 12.5 mg/kg/injection, schedule: Q04DX003 (ip), vehicle: saline with Tween-80
[20] = dose: 25.0 mg/kg/injection, schedule: Q04DX003 (ip), vehicle: saline with Tween-80
[21] = dose: 50.0 mg/kg/injection, schedule: Q04DX003 (ip), vehicle: saline with Tween-80

CCN(CCCl)c1ccccc1
T/C (dose: 3.12 mg/kg/injection, schedule: Q01DX009 (ip), vehicle: saline): 105 % of control | T/C [1]: 106 % of control | T/C [2]: 116 % of control | T/C [3]: 106 % of control and 115 % of control

C=C=C(COC(C)=O)ON1CCOCC1
T/C (dose: 100.0 mg/kg/injection, schedule: Q01DX001 (ip), vehicle: saline): 99 % of control | T/C (dose: 200.0 mg/kg/injection, schedule: Q01DX001 (ip), vehicle: saline): 103 % of control | T/C (dose: 400.0 mg/kg/injection, schedule: Q01DX001 (ip), vehicle: saline): 100 % of control

O=c1[nH]ccn1-c1ccccc1
T/C [4]: 102 % of control | T/C [5]: 100 % of control | T/C [6]: 97 % of control

CC(=O)OC1C2=C(C)C(=O)OC2=CC2=CCCC(C)C21C (stereo not given)
T/C (dose: 4.0 mg/kg/injection, schedule: Q01DX009 (ip), vehicle: Klucel (hydroxypropylcellulose) (HPC)): 102 % of control | T/C (dose: 8.0 mg/kg/injection, schedule: Q01DX009 (ip), vehicle: Klucel (hydroxypropylcellulose) (HPC)): 91 % of control | T/C (dose: 16.0 mg/kg/injection, schedule: Q01DX009 (ip), vehicle: Klucel (hydroxypropylcellulose) (HPC)): 102 % of control | T/C (dose: 32.0 mg/kg/injection, schedule: Q01DX009 (ip), vehicle: Klucel (hydroxypropylcellulose) (HPC)): 109 % of control

COC(=O)c1cc2c(s1)CCC/C(Cl)=C(/C=O)C2
T/C [7]: 96 % of control | T/C [1]: 97 % of control | T/C [8]: 104 % of control and 94 % of control | T/C [2]: 91 % of control | T/C [9]: 106 % of control and 95 % of control | T/C [3]: 97 % of control | T/C [10]: 100 % of control and 107 % of control | T/C [11]: 101 % of control and 120 % of control | T/C [12]: 103 % of control

C=CCSCC1Nc2cc(Cl)c(S(N)(=O)=O)cc2S(=O)(=O)N1C (stereo not given)
T/C [13]: 100 % of control | T/C [14]: 105 % of control | T/C [15]: 101 % of control

CCOc1ccc(-n2c(O)c(N=Nc3ccccc3OC)sc2=S)cc1
T/C [16]: 97 % of control | T/C [17]: 93 % of control | T/C [18]: 95 % of control

C/C(N=NC(=S)N1CCSCC1)=C1\C=CC=CN1O
T/C (dose: 12.5 mg/kg/injection, schedule: Q01DX005 (ip), vehicle: saline with Tween-80): 97 % of control | T/C (dose: 25.0 mg/kg/injection, schedule: Q01DX005 (ip), vehicle: saline with Tween-80): 100 % of control | T/C [13]: 107 % of control and 97 % of control | T/C [15]: 102 % of control

COc1cc(O)cc2c1C(=O)C(C)O2 (stereo not given)
T/C (dose: 60.0 mg/kg/injection, schedule: Q01DX005 (ip), vehicle: Klucel (hydroxypropylcellulose) (HPC)): 101 % of control | T/C (dose: 120.0 mg/kg/injection, schedule: Q01DX005 (ip), vehicle: Klucel (hydroxypropylcellulose) (HPC)): 101 % of control | T/C (dose: 240.0 mg/kg/injection, schedule: Q01DX005 (ip), vehicle: Klucel (hydroxypropylcellulose) (HPC)): 91 % of control

COC(=O)C(=O)c1c(C(=O)OC)nc2[nH]n(-c3ccccc3)c(=O)c2c1Cc1ccccc1
T/C [4]: 98 % of control | T/C [5]: 100 % of control | T/C [6]: 91 % of control

CN(C)c1ccc(C(N)=O)cn1
T/C (dose: 1.56 mg/kg/injection, schedule: Q01DX009 (ip), vehicle: saline with Tween-80): 109 % of control | T/C [7]: 90 % of control | T/C [19]: 109 % of control | T/C [20]: 118 % of control | T/C [21]: 118 % of control

CCNc1ccc(F)cc1[N+](=O)[O-]
T/C [21]: 100 % of control | T/C (dose: 100.0 mg/kg/injection, schedule: Q04DX003 (ip), vehicle: saline with Tween-80): 100 % of control | T/C (dose: 200.0 mg/kg/injection, schedule: Q04DX003 (ip), vehicle: saline with Tween-80): 86 % of control

Cc1sc2ccccc2[n+]1CCC(=O)O
T/C [10]: 100 % of control | T/C (dose: 100.0 mg/kg/injection, schedule: Q01DX009 (ip), vehicle: saline with Tween-80): 100 % of control | T/C (dose: 200.0 mg/kg/injection, schedule: Q01DX009 (ip), vehicle: saline with Tween-80): 98 % of control | T/C (dose: 400.0 mg/kg/injection, schedule: Q01DX009 (ip), vehicle: saline with Tween-80): 98 % of control

COC(=O)CCSC(=O)NC1CCCCC1
T/C [16]: 102 % of control | T/C [17]: 107 % of control | T/C [18]: 102 % of control

C=C1C(=O)O[C@@H]2/C=C(/C)[C@@H](OC(C)=O)C/C=C(\C)C(O)[C@@H](OC(=O)/C(C)=C\C)C12 (stereo not given in full)
T/C (dose: 25.0 mg/kg/injection, schedule: Q04DX002 (ip), vehicle: saline with Tween-80): 105 % of control | T/C (dose: 50.0 mg/kg/injection, schedule: Q04DX002 (ip), vehicle: saline with Tween-80): 105 % of control | T/C (dose: 100.0 mg/kg/injection, schedule: Q04DX002 (ip), vehicle: saline with Tween-80): 104 % of control | T/C (dose: 200.0 mg/kg/injection, schedule: Q04DX002 (ip), vehicle: saline with Tween-80): 97 % of control

CC(Br)CN(CC(C)Br)c1ccc(-c2ccccc2)cc1 (stereo not given)
T/C (dose: 12.5 mg/kg/injection, schedule: Q01DX009 (ip), vehicle: Klucel (hydroxypropylcellulose) (HPC)): 154 % of control | T/C (dose: 25.0 mg/kg/injection, schedule: Q01DX009 (ip), vehicle: Klucel (hydroxypropylcellulose) (HPC)): 164 % of control | T/C (dose: 50.0 mg/kg/injection, schedule: Q01DX009 (ip), vehicle: Klucel (hydroxypropylcellulose) (HPC)): 176 % of control and 181 % of control | T/C (dose: 100.0 mg/kg/injection, schedule: Q01DX009 (ip), vehicle: Klucel (hydroxypropylcellulose) (HPC)): 184 % of control

COc1cccc2c1C(=O)c1c(O)c3c(c(O)c1C2=O)C[C@@](O)(C(C)=O)C[C@@H]3OC1CC(NC(=O)C(N)CC(C)C)C(O)C(C)O1 (stereo not given in full)
T/C (dose: 3.12 mg/kg/injection, schedule: Q04DX003 (ip), vehicle: saline): 109 % of control | T/C (dose: 6.25 mg/kg/injection, schedule: Q04DX003 (ip), vehicle: saline): 119 % of control | T/C (dose: 25.0 mg/kg/injection, schedule: Q04DX003 (ip), vehicle: saline): 163 % of control and 186 % of control | T/C (dose: 50.0 mg/kg/injection, schedule: Q04DX003 (ip), vehicle: saline): 163 % of control

SCc1ccccc1.[Cu+2]
T/C [7]: 99 % of control | T/C [8]: 91 % of control | T/C [9]: 97 % of control

C/C(=N\NC(N)=S)c1cccc(/C(C)=N/NC(N)=S)n1
T/C [19]: 91 % of control | T/C [20]: 93 % of control | T/C [21]: 89 % of control

CN(O)C(=O)CN
T/C [13]: 102 % of control | T/C [14]: 102 % of control | T/C [15]: 98 % of control | T/C (dose: 400.0 mg/kg/injection, schedule: Q01DX005 (ip), vehicle: saline with Tween-80): 100 % of control

CCOc1ccc(C(c2ccc(OCC)cc2)C(C)C)cc1
T/C (dose: 50.0 mg/kg/injection, schedule: Q01DX009 (ip), vehicle: suspension in saline): 108 % of control | T/C (dose: 100.0 mg/kg/injection, schedule: Q01DX009 (ip), vehicle: suspension in saline): 100 % of control | T/C (dose: 200.0 mg/kg/injection, schedule: Q01DX009 (ip), vehicle: suspension in saline): 105 % of control

C[Si](C)(C)N1CCCC1
T/C [3]: 105 % of control | T/C [11]: 89 % of control | T/C [12]: 90 % of control | T/C (dose: 200.0 mg/kg/injection, schedule: Q01DX009 (ip), vehicle: saline): 107 % of control

O=C(Cc1nc2ccc(Cl)cc2[nH]c1=O)c1ccncc1
T/C [4]: 94 % of control | T/C [5]: 100 % of control | T/C [6]: 119 % of control

CC(C)(C)CC(C)(C)C/C=C/CN1C(=O)c2ccccc2S1(=O)=O
T/C [16]: 101 % of control | T/C [17]: 100 % of control | T/C [18]: 108 % of control

O=C1C2C3C=CC(C2C(=O)N1c1ccccc1)C1C2C(=O)N(c4ccccc4)C(=O)C2C31 (stereo not given)
T/C (dose: 100.0 mg/kg/injection, schedule: Q01DX001 (ip), vehicle: saline with Tween-80): 88 % of control | T/C (dose: 200.0 mg/kg/injection, schedule: Q01DX001 (ip), vehicle: saline with Tween-80): 89 % of control | T/C (dose: 400.0 mg/kg/injection, schedule: Q01DX001 (ip), vehicle: saline with Tween-80): 93 % of control

O=C(Nc1ccccc1)ON=C1CCCCC1
T/C [4]: 101 % of control | T/C [5]: 96 % of control | T/C [6]: 99 % of control
